Results reported in patent publication EP0247971A2, “Novel pharmaceutical compositions comprising and use of cis-6-(4-acetanilido)-8,9-dimethoxy-2-methyl-1,2,3,4,4a,10b-hexahydrobenzo[c][1,6]naphthyridin” (SANDOZ AG, priority 1986, dated 1987).

What was measured:
Assay type in all cases: in vivo
[1] = system: subjects exhibiting allergic, atopic bronchoconstrictor response; assay: Clinical trial B: prophylactic efficacy compared with placebo (allergen challenge); settings: vs placebo
Method: Suitable individual dosages, e.g. for (i)-COMPOUND as the bis-hydrogen maleate, in such clinical trials comprise e.g. ca. 1 to 25 mg administered by inhalation (for single administration or administration 2 to 3 daily) or ca. 25 to 100 mg orally (for single administration or administration 2 to 3x daily) up to ca. 200 or 300 mg orally (for single administration).
Both acute (0 to 1 hour) and long-term (up to 12 hour) change in lung function is determined post-medication by measurement of parameters (FVC, FEV 1 etc...) as set forth for clinical trial A above.
In addition to monitoring of lung function, blood eosinophil levels are also monitored and the incidence of activated eosinophils and eosinophil secretory proteins is determined. In individual studies, subjects are also subjected to lung lavage and the presence of eosinophils and platelets and their respective secretory products determined before and after exposure to allergen.

[2] = system: patients exhibiting bronchial asthma; assay: Clinical trial A: bronchodilator efficacy compared with placebo and/or Theophylline and with Salbutamol
Excerpt: Criteria for inclusion are based on medical history and on initial examination. Subjects selected are of either sex, aged between 18 and 60 years, and identified as having a history of bronchial asthma and positive response to inhalation of β2-agonist therapy (e.g. Fenoterol or Salbutamol) or other bronchodilator therapy, e.g. with FEV-1 and/or PEFR increasing by 20% as documented 1 week before commencement of the trial. Baseline of FEV-1 and/or PEFR in each subject entered for the trial should be at least 20% below the predicted value, preferably also at the time of trial. The following exclusion criteria are applied: • - Severe chronic obstructive pulmonary disease, emphysema, active and progressive infection, status asthmaticus during the last 12 months. • - Any serious or chronic illness of the gastrointestinal system, liver or kidneys which may influence absorption, metabolism and excretion of the drugs. • - Diabetes mellitus. • - Any condition which might impair the ability of the physician to evaluate the progress of the patient.
Medication employed for the trial comprises: • A. (±)-COMPOUND (in the form of its bis-hydrogen maleate salt), in dry substance form. For administration the active ingre- ded is dissolved in pharmaceutical grade water, 30 - 60 mins. before ingestion: at a concentration of 1 g/100 ml, for administration at a dosage of 300 mg (30 ml), 200 mg (20 ml) or 100 mg (10 ml); at a concentration of 0.5 g/ 100 ml, for administration at a dosage of 50 mg (10 ml); or at a concentration of 0.25 g/100 ml for administration at a dosage of 25 mg (10 ml). • B. Theophylline solution at a dosage of 150 mg. • C. Placebo - aqueous solution only, no active ingredient. • D. Salbutamol, administered by inhalation in 3 puffs comprising 0.1 mg active ingredient/puff.
The trial is performed for each subject on 2, 3 or more separate days, each trial day being separated by a wash-out period of 3 to 7 days. […]

Guinea pigs = assay: Suppression of airways hyperreactivity, sensitised animals (immune complexes); settings: immune-complex treated animals, labelled platelets
Excerpt: Guinea pigs are anaesthetised and airways resistance and compliance recorded as described under example lb^l above. […] Platelets are isolated and labelled with ^lllindium prior to intravenous infusion. Platelet accumulation is monitored by external crystal detectors [c.f. Morley et al. […] Allergic reaction is initiated by i.v. injection of preformed immune complexes (bovine y-globulin/ anti-bovine y-globulin), using a dose that is scarcely sufficient to induce bronchospasm at the first injection. By repeating the dose at regular (10 min.) intervals, bronchospasm of progressively increasing amplitude is evidenced. This effect is paralleled by an incremental retention of platelets within the airway vasculature. Following the last dose of immune complexes, the dose-effect relationship to histamine is re-defined. In animals so treated, induction of airways hyperreactivity is consistently observed.

asthmatic subjects = assay: Clinical trial C: prophylactic/bronchodilator efficacy in asthma; settings: additional bronchodilator dosaging on attack
Method: Initial dosaging is of the order of from 1 to 100 mg, e.g. from 5 to 50 mg per day, administered once or in divided dosages 2 or 3x daily, for administration by inhalation and of the order of from 25 to 300 mg per day administered once or in divided dosages 2 or 3x daily, for oral administration, with subsequent reduction in appropriate cases to a maintainance dosage of 1 to 50 mg, e.g. from 5 to 25 mg, per day for inhalation or from 25 to 100 or 200 mg per day orally. Administration is suitably effected in divided dosages 2 or 3x daily. During the course of the trial subjects are monitored continually and all relevant parameters recorded including lung function, alterations in the incidence of activated eosinophils or the release of eosinophil products into the blood or bronchial fluids and/or changes in the function of platelets ex vivo and, in particular,-frequency and severity of asthma exacerbation or attack. Additional bronchodilator dosaging may be provided on the occasion of any such attack.

| SMILES | bronchorestrictor response to allergen ([1]; ca. 1 to 25 mg by inhalation or ca. 25 to 300 mg orally prior to allergen challenge) | eosinophilic response ([1]; dosages as indicated prior to allergen challenge) | tolerance (reported side-effects and side-reactions) ([2]; all instances) | results compared with therapy B (Theophylline 150 mg) or D (Salbutamol inhalation) ([2]; higher dosage rates, e.g. of 50 mg or 100 mg and more) | lung-function ([2]; oral 25 to 300 mg, compared with placebo) | platelet accumulation (Guinea pigs) | results employing COMPOUND at exacerbation or attack (asthmatic subjects) |
| --- | --- | --- | --- | --- | --- | --- | --- |
| COc1cc2c(cc1OC)[C@@H]1CN(C)CC[C@@H]1N=C2c1ccc(NC(C)=O)cc1 (racemic) [cis-6-(4-acetanilido)-8,9-dimethoxy-2-methyl-1,2,3,4,4a,10b-hexahydrobenzo[c][1,6]naphthyridin] | advance protection | reduction | well tolerated | approach or are at least comparable | marked improvement | – | – |
| COc1cc2c(cc1OC)[C@@H]1CN(C)CC[C@@H]1N=C2c1ccc(NC(C)=O)cc1 [COMPOUND, cis-6-(4-acetanilido)-8,9-dimethoxy-2-methyl-1,2,3,4,4a,10b-hexahydrobenzo[c][1,6]naphthyridin] | – | – | – | – | – | No inhibition | symptomatic efficacy |
